The target of test [1] is T1, hDPP III (Homo sapiens, UniProt Q9NY33).
T1 sequence (Q9NY33 1-737): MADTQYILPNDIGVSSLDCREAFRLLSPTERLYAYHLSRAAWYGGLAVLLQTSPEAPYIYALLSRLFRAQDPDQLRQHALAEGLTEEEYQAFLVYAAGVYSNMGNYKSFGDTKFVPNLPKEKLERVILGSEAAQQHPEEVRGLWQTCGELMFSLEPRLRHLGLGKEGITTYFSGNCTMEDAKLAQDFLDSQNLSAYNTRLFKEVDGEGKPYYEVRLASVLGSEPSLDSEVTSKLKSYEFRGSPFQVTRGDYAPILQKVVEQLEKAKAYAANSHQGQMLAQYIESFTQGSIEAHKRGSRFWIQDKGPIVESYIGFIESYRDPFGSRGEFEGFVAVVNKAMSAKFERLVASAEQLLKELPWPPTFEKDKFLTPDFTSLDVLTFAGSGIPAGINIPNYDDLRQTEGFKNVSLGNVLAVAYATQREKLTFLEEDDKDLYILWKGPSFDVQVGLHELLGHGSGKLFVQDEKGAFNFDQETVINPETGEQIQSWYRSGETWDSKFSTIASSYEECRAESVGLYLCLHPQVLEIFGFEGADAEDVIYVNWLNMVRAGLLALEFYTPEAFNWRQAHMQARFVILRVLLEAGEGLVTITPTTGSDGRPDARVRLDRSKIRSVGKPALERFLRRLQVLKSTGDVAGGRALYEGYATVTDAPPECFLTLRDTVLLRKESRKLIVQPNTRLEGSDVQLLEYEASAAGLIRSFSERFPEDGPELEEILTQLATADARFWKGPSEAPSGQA
The test is described as follows: biochemical. How it is done: (§1) The Km values for hydrolysis of fluorogenic substrate Arg2-2NA were determined at pH 7.4 (20 mM Tris–HCl buffer) and at 25 °C, from the initial reaction rates as previously described.[26]
(§2) Enzyme inhibition studies with tynorphin were performed using the Arg2-2NA as a substrate, according to Baršun et al.[36] The inhibition constant, Ki, was calculated according to the equation:1 Ki = i/(v0/vi − 1)·Km/(Km + s)where v0 and vi are the initial hydrolysis rates of Arg2-2NA (given in concentration s) catalyzed by DPP III in the absence and presence of inhibitor concentration (i), and Km is the Michaelis constant.

The target of test [2] is T2, CaDPP III (Caldithrix abyssi, UniProt H1XW48).
T2 construct: made in house; host or cells: E. coli
T2 sequence (H1XW48 19-558): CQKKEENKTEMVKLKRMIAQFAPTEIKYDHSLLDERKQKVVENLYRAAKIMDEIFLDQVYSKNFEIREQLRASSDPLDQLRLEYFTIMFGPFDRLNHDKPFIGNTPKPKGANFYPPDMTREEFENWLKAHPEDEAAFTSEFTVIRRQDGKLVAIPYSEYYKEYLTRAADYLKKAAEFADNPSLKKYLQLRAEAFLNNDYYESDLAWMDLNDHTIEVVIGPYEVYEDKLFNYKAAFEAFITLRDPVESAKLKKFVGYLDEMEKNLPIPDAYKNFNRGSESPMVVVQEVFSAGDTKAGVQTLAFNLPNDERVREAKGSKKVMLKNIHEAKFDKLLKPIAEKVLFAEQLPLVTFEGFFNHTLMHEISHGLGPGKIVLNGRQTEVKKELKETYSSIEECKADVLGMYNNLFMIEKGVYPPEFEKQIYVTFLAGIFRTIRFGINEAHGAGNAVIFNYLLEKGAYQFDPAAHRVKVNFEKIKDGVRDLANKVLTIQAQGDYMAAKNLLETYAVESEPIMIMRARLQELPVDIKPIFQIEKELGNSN
The test is described as follows: Inhibition of DPP III hydrolysis of Arg2-2NA by tynorphin. Format: biochemical. Particulars: substrate Arg2-2NA, from initial hydrolysis rates, eq. 1. How it is done: as §1, §2

From PMC9079729, “Conservation of the conformational dynamics and ligand binding within M49 enzyme family” (RSC Advances, 2018) come the findings set out here.

Molecules are shown by their SMILES. Residues, ends and D or L forms follow the SMILES beside them.

Regarding `CC(C)[C@H](N)C(=O)N[C@H](C(=O)N[C@@H](Cc1ccc(O)cc1)C(=O)N1CCC[C@H]1C(=O)N[C@@H](Cc1c[nH]c2ccccc12)C(=O)O)C(C)C` [tynorphin] (H-VVYPW-OH), the Ki – broadly, the dissociation constant of the complex between target and ligand, obtained from inhibition or displacement – came out at 30 nM in test [1] and 16.8 µM in test [2].
